{"source": "patent US20230287343A1", "about": "“METHOD FOR GENERATING A THREE-DIMENSIONAL NEUROMUSCULAR ORGANOID IN VITRO” (MAX-DELBRÜCK-CENTRUM FÜR MOLEKULARE MEDIZIN IN DER …, priority 2020, published 2023)", "key": {"[1]": {"system": "neuromuscular organoids (NMOs)", "test": "Microelectrode array (MEA) recording of NMO electrical activity", "assay_type": "cell-based, human", "conditions": "for suppression of electrical activity: APV 50 uM and CNQX 40 uM applied together; for local (single electrode) firings / synchronous network activity (paired electrode spikes): NMDA and 5-HT stimulation at day 50; for rhythmic activity (central pattern generator-like): NMDA/5-HT cocktail; for activity triggered by the drugs (fictive locomotion paradigm): cocktail of NMDA (10 uM) and 5-HT (40 uM)"}, "[2]": {"system": "neuromuscular organoids (NMOs)", "test": "Contractile activity of NMOs before and after curare", "assay_type": "cell-based, human", "conditions": "curare 10 uM, before and after treatment", "experimental": "Video segments of equal length were recorded using a bright-field microscope (DMI1, Leica) in 3 different regions of the same organoid using 20× zoom. To quantify muscle contractions, each movie was analyzed separately where each visible contraction was counted and then averaged for the whole organoid.\nTo analyze and map organoid muscular contraction, bright field time series images were automatically thresholded using ImageJ software to identify organoid border. A binary stack was created and contractile regions were visually identified. Regions of interest were defined and variations of organoid area (in pixel), used as a proxy of physical contraction, were plotted over the time series."}}, "note": "Entries after “also recorded” stand apart in the source; their conditions may differ."}
{"compound": "NC1=N[C@H](O)[C@H]2[C@H]3O[C@]4(O)O[C@@H]([C@@H](O)[C@@]2(N1)[C@@H]4O)[C@]3(O)CO", "note": "[tetrodotoxin]", "values": [{"measurement": "suppression of NMDA/5-HT triggered activity", "setting": "[1]", "value": "reversibly suppressed"}]}
{"compound": "N#Cc1cc2[nH]c(=O)c(=O)[nH]c2cc1[N+](=O)[O-]", "note": "[CNQX]", "values": [{"measurement": "suppression of electrical activity", "setting": "[1]", "value": "reversibly suppressed nearly all electrical activity"}]}
{"compound": "CN[C@H](CC(=O)O)C(=O)O", "note": "[NMDA]", "values": [{"measurement": "local (single electrode) firings", "setting": "[1]", "value": "increased single firings; also recorded: notable increase of local firings"}, {"measurement": "synchronous network activity (paired electrode spikes)", "setting": "[1]", "value": "increase in paired electrode spikes; also recorded: dramatic increase of synchronous network activity"}, {"measurement": "rhythmic activity (central pattern generator-like)", "setting": "[1]; day 50 NMOs", "value": "activity became rhythmic; also recorded: produced rhythmic bursts of electrical activity"}, {"measurement": "activity triggered by the drugs (fictive locomotion paradigm)", "setting": "[1]", "value": "instantaneously triggered strong activity"}]}
{"compound": "N[C@@H](CCC(=O)O)C(=O)O", "note": "[glutamate]", "values": [{"measurement": "increase of spontaneous activity", "setting": "[1]; acute glutamate 50 uM, day 30 and day 50 organoids", "value": "approximately 12 fold"}]}
{"compound": "NCCc1c[nH]c2ccc(O)cc12", "note": "[5-HT, Serotonin]", "values": [{"measurement": "local (single electrode) firings", "setting": "[1]", "value": "increased single firings; also recorded: notable increase of local firings"}, {"measurement": "synchronous network activity (paired electrode spikes)", "setting": "[1]", "value": "increase in paired electrode spikes; also recorded: dramatic increase of synchronous network activity"}, {"measurement": "rhythmic activity (central pattern generator-like)", "setting": "[1]; day 50 NMOs", "value": "activity became rhythmic; also recorded: produced rhythmic bursts of electrical activity"}, {"measurement": "activity triggered by the drugs (fictive locomotion paradigm)", "setting": "[1]", "value": "instantaneously triggered strong activity"}]}
{"compound": "curare", "values": [{"measurement": "block of acetylcholine-stimulated electrical activity", "setting": "[1]; curare 10 uM, day 50 NMOs", "value": "rapidly and reversibly blocked"}, {"measurement": "contraction of the skeletal muscles (contractile activity of NMOs)", "setting": "[2]", "value": "blocked the contraction of the skeletal muscles; also recorded: organoid relaxation"}]}
{"compound": "N[C@@H](CCCP(=O)(O)O)C(=O)O", "note": "[APV]", "values": [{"measurement": "suppression of electrical activity", "setting": "[1]", "value": "reversibly suppressed nearly all electrical activity"}]}
